Counter-ions that a name gives are not always drawn.
Each compound was assayed against T1, recombinant guanylate cyclase reporter cell line (Rattus norvegicus, UniProt P19686+P20595) (assay: Action on recombinant guanylate cyclase reporter cell line). Conditions: in some cases mean values obtained from individual determinations.
T1 construct: expressed in transfected cells
T1 sequence (P20595 1-619): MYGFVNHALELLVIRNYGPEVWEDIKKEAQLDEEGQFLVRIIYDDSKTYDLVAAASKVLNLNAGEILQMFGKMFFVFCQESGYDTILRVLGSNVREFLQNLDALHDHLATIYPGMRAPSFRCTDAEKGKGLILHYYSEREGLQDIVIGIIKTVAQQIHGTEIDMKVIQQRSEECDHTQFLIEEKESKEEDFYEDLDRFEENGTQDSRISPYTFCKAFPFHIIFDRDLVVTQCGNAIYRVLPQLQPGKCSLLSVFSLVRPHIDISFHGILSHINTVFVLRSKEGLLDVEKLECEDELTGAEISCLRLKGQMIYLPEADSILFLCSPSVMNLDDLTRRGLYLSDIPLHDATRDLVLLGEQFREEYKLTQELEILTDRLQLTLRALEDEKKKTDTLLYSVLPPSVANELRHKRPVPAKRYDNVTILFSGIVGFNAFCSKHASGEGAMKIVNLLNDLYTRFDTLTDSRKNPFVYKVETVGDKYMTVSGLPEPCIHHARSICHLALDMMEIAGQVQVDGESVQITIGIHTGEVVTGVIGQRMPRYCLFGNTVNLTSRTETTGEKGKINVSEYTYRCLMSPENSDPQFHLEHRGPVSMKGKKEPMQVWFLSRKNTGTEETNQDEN
T1 sequence (P19686 1-690): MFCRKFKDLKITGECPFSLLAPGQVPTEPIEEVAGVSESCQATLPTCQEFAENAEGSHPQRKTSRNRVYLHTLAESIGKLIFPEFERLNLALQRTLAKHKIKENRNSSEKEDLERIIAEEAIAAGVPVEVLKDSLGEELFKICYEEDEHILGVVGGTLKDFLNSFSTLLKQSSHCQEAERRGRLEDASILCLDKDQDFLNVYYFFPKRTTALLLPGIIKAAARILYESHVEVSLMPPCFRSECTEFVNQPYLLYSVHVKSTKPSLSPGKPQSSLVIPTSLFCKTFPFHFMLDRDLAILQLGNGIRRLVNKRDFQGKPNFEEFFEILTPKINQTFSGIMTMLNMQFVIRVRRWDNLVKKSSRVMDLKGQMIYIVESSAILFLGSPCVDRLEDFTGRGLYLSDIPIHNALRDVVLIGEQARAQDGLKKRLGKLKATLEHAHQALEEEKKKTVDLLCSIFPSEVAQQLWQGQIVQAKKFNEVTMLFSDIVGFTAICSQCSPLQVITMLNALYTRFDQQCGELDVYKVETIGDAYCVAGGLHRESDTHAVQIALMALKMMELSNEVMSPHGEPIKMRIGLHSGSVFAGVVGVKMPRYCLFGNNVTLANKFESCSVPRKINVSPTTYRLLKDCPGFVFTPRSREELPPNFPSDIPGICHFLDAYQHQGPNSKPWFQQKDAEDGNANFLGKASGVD
Format: cell-based
Protocol: B-2. Action on Recombinant Guanylate Cyclase Reporter Cell Line
The cellular action of the compounds according to the invention is determined on a recombinant guanylate cyclase reporter cell line, as described in F. Wunder et al., Anal. Biochem. 339, 104-112 (2005).
Representative values (MEC=minimal effective concentration) for the compounds according to the invention are shown in the following table (in some cases as mean values obtained from individual determinations): […]
`Cc1nc2c(OCc3c(F)cccc3F)cccn2c1C(=O)NC(CO)COCC(C)C` (racemic) [Example 163, rac-8-[(2,6-Difluorobenzyl)oxy]-N-(1-hydroxy-3-isobutoxypropan-2-yl)-2-methylimidazo[1,2-a]-pyridine-3-carboxamide] was tested, and the “MEC (minimal effective concentration)” value was 1.0 µM. `Cc1cc(OCCC(C(F)(F)F)C(F)(F)F)c2nc(C)c(C(=O)NC(CCCC(F)(F)F)C(C)(C)O)n2c1` (racemic) [Example 170, rac-2,6-Dimethyl-N-(7,7,7-trifluoro-2-hydroxy-2-methylheptan-3-yl)-8-[4,4,4-trifluoro-3-(trifluoromethyl)butoxy]imidazo[1,2-a]pyridine-3-carboxamide] was tested, and the “MEC (minimal effective concentration)” value was 3.0 µM. `CCC(O)CNC(=O)c1c(C)nc2c(OCCC(C(F)(F)F)C(F)(F)F)cc(C)cn12` (racemic) [Example 174, rac-N-(2-hydroxybutyl)-2,6-dimethyl-8-[4,4,4-trifluoro-3-(trifluoromethyl)butoxy]imidazo[1,2-a]pyridine-3-carboxamide] was tested, and the “MEC (minimal effective concentration)” value was 3.0 µM. With `Cc1cc(OCCC(C(F)(F)F)C(F)(F)F)c2nc(C)c(C(=O)NCC(O)c3ccc(Cl)cc3)n2c1` (racemic) [Example 175, rac-N-[2-(4-chlorophenyl)-2-hydroxyethyl]-2,6-dimethyl-8-[4,4,4-trifluoro-3-(trifluoromethyl)butoxy]imidazo[1,2-a]pyridine-3-carboxamide] the “MEC (minimal effective concentration)” value was 3.0 µM. `Cc1cc(OCC2CC(F)(F)C2)c2nc(C)c(C(=O)NC(CCCC(F)(F)F)C(C)(C)O)n2c1` (racemic) [Example 176, rac-8-[(3,3-Difluorocyclobutyl)methoxy]-2,6-dimethyl-N-(7,7,7-trifluoro-2-hydroxy-2-methylheptan-3-yl)imidazo[1,2-a]pyridine-3-carboxamide] was tested, and the “MEC (minimal effective concentration)” value was 3.0 µM. In the case of `Cc1cc(OCc2ncccc2F)c2nc(C)c(C(=O)NC(CCCC(F)(F)F)C(C)(C)O)n2c1` (racemic) [Example 178, rac-8-[(3-fluoropyridin-2-yl)methoxy]-2,6-dimethyl-N-(7,7,7-trifluoro-2-hydroxy-2-methylheptan-3-yl)imidazo[1,2-a]pyridine-3-carboxamide trifluoroacetate], the “MEC (minimal effective concentration)” value was 1 µM. For `Cc1nc2c(OCc3ncccc3F)cccn2c1C(=O)NC(CCCC(F)(F)F)C(C)(C)O` (racemic) [Example 179, rac-8-[(3-fluoropyridin-2-yl)methoxy]-2-methyl-N-(7,7,7-trifluoro-2-hydroxy-2-methylheptan-3-yl)imidazo(1,2-a]pyridine-3-carboxamide], the “MEC (minimal effective concentration)” value was 1 µM. `Cc1nc2c(OCc3ncccc3F)cccn2c1C(=O)NC(CC(F)(F)F)C(C)(C)O` (racemic) [Example 180, rac-8-[(3-Fluoropyridin-2-yl)methoxy]-2-methyl-N-(1,1,1-trifluoro-4-hydroxy-4-methylpentan-3-yl)imidazo[1,2-a]pyridine-3-carboxamide] was tested, and the “MEC (minimal effective concentration)” value was 1 µM. In the case of `Cc1cc(OCc2ncccc2F)c2nc(C)c(C(=O)NC(CC(F)(F)F)C(C)(C)O)n2c1` (racemic) [Example 184, rac-8-[(3-fluoropyridin-2-yl)methoxy]-2,6-dimethyl-N-(1,1,1-trifluoro-4-hydroxy-4-methylpentan-3-yl)imidazo[1,2-a]pyridine-3-carboxamide (racemate)], the “MEC (minimal effective concentration)” value was 1 µM. With `Cc1cc(OCc2ncccc2F)c2nc(C)c(C(=O)NC(CCC(F)(F)C(F)(F)F)C(C)(C)O)n2c1` (racemic) [Example 186, rac-8-[(3-fluoropyridin-2-yl)methoxy]-2,6-dimethyl-N-(6,6,7,7,7-pentafluoro-2-hydroxy-2-methylheptan-3-yl)imidazo[1,2-a]pyridine-3-carboxamide (racemate)] the “MEC (minimal effective concentration)” value was 1 µM. For `Cc1cc(OCc2ncccc2F)c2nc(C)c(C(=O)NC(CCCC(F)(F)C(F)(F)F)C(C)(C)O)n2c1` (racemic) [Example 190, rac-8-[(3-fluoropyridin-2-yl)methoxy]-2,6-dimethyl-N-(7,7,8,8,8-pentafluor-2-hydroxy-2-methyloctan-3-yl)imidazo[1,2-a]pyridine-3-carboxamide (racemate)], the “MEC (minimal effective concentration)” value was 1 µM. In the case of `Cc1cc(OCc2ncccc2F)c2nc(C)c(C(=O)NCC(O)C(F)(F)F)n2c1` (racemic) [Example 197, rac-8-[(3-fluoropyridin-2-yl)methoxy]-2,6-dimethyl-N-(3,3,3-trifluoro-2-hydroxypropyl)imidazo[1,2-a]pyridine-3-carboxamide], the “MEC (minimal effective concentration)” value was 3 µM. `Cc1nc2c(OCC3CCCCC3)cccn2c1C(=O)N[C@@H]1CCC[C@@H]1O` (relative stereo) [Example 81, 8-(cyclohexylmethoxy)-N-[cis-2-hydroxycyclopentyl]-2-methylimidazo[1,2-a]-pyridine-3-carboxamide] was tested, and the “MEC (minimal effective concentration)” value was 0.65 µM. With `Cc1nc2c(OCc3c(F)cccc3F)cccn2c1C(=O)NC(CO)CCC(O)C(F)(F)F` (single isomer, unassigned) [Example 138, 8-[(2,6-Difluorobenzyl)oxy]-2-methyl-N-(6,6,6-trifluoro-1,5-dihydroxyhexan-2-yl)imidazo[1,2-a]-pyridine-3-carboxamide] the “MEC (minimal effective concentration)” value was 0.1 µM. `CCCCC(NC(=O)c1c(C)nc2c(OCCC(C)C)cc(C)cn12)C(C)(C)O` (single isomer, unassigned) [Example 167, ent-N-(2-Hydroxy-2-methylheptan-3-yl)-2,6-dimethyl-8-(3-methylbutoxy)imidazo[1,2-a]pyridine-3-carboxamide] was tested, and the “MEC (minimal effective concentration)” value was 2.0 µM. In the case of `Cc1cc(OCCC(C)C)c2nc(C)c(C(=O)NC(CCCC(F)(F)F)C(C)(C)O)n2c1` (single isomer, unassigned; ent-2) [Example 168, ent-2,6-Dimethyl-8-(3-methylbutoxy)-N-(7,7,7-trifluoro-2-hydroxy-2-methylheptan-3-yl)imidazo-[1,2-a]pyridine-3-carboxamide], the “MEC (minimal effective concentration)” value was 3.0 µM. `Cc1cc(OCc2c(F)ccc(F)c2F)c2nc(C)c(C(=O)NC(CCC(F)(F)C(F)(F)F)C(C)(C)O)n2c1` (single isomer, unassigned; ent-2) [Example 198, ent-2,6-dimethyl-N-(6,6,7,7,7-pentafluoro-2-hydroxy-2-methylheptan-3-yl)-8-[(2,3,6-trifluorobenzyl)oxy]imidazo[1,2-a]pyridine-3-carboxamide] was tested, and the “MEC (minimal effective concentration)” value was 0.03 µM. With `Cc1nc2c(OCc3c(F)cccc3F)cccn2c1C(=O)NC(CO)c1ccc(F)cc1` (single isomer, unassigned; ent-8) [Example 107, ent-8-[(2,6-Difluorobenzyl)oxy]-N-[1-(4-fluorophenyl)-2-hydroxyethyl]-2-methylimidazo[1,2-a]-pyridine-3-carboxamide] the “MEC (minimal effective concentration)” value was 0.1 µM. For `Cc1nc2c(OCc3c(F)cccc3F)cccn2c1C(=O)NCC(O)C(F)(F)F` (single isomer, unassigned; ent-8) [Example 109, ent-8-[(2,6-Difluorobenzyl)oxy]-2-methyl-N-(3,3,3-trifluoro-2-hydroxypropyl)imidazo[1,2-a]-pyridine-3-carboxamide], the “MEC (minimal effective concentration)” value was 0.1 µM.

From patent publication US8946215B2, “Hydroxy-substituted imidazo[1,2-a]pyridinecarboxamides and their use” (Bayer Pharma Aktiengesellschaft, priority 2012, dated 2015)
